By Kd is commonly meant a measure of binding affinity in units of concentration. The low end stands for a tighter complex, the high end for a looser complex.

This passage reports Kd results from patent US12091402B2 (Avilar Therapeutics, Inc., priority 2021, dated 2024).

For the experiment, the target named is T1, ASGPR (Homo sapiens, UniProt P07306).
T1 sequence (P07306 1-291): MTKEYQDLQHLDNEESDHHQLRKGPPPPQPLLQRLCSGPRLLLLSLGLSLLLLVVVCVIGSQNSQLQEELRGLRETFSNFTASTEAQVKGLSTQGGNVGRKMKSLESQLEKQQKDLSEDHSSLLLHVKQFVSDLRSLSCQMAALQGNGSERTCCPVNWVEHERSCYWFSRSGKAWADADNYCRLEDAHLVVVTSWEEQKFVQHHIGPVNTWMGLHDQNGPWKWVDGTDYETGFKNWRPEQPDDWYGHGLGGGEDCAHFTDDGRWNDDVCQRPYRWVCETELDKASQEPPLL
Description: Affinity to ASGPR by surface plasmon resonance (SPR). A general note: SPR reads the build-up and loss of mass on a sensor chip optically.

A value given as a limit tells only on which side of the number the result lay.

For `O=[N+]([O-])c1ccc(NCCOCCOCCOCCOC[C@H]2OC[C@@H](Nc3nc(Cl)ns3)[C@@H](O)[C@H]2O)c([N+](=O)[O-])c1` [Compound 24, (2R,3R,4R,5R)-5-((3-chloro-1,2,4-thiadiazol-5-yl)amino)-2-(13-((2,4-dinitrophenyl)amino)-2,5,8,11-tetraoxatridecyl)tetrahydro-2H-pyran-3,4-diol], the Kd is less than 100 nM. On to `CCOC(=O)c1cnc(C(F)(F)F)nc1N[C@H]1[C@H]2OC[C@](CO)(O2)[C@H](O)[C@@H]1O` [A110, ethyl 4-(((1S,2R,3R,4R,5S)-2,3-dihydroxy-1-(hydroxymethyl)-6,8-dioxabicyclo[3.2.1]octan-4-yl)amino)-2-(trifluoromethyl)pyrimidine-5-carboxylate], for which the Kd was 1000 to 10000 nM. Under `OC[C@H]1O[C@H](OCC2CO2)[C@H](Nc2nccc(C(F)(F)F)n2)[C@@H](O)[C@H]1O` (stereo partly drawn) [A76, (2R,3R,4R,5R,6S)-2-(hydroxymethyl)-6-(oxiran-2-ylmethoxy)-5-((4-(trifluoromethyl)pyrimidin-2-yl)amino)tetrahydro-2H-pyran-3,4-diol] stands less than 1000 nM; under `O=C(O)CC(=O)NC(COCCC(=O)NC[C@H]1OC[C@H](Nc2cncc(C(F)(F)F)n2)[C@@H](O)[C@H]1O)COCCC(=O)NC[C@H]1OC[C@H](Nc2cncc(C(F)(F)F)n2)[C@@H](O)[C@H]1O` [A33, 3-((1,15-bis((2R,3R,4R,5S)-3,4-dihydroxy-5-((6-(trifluoromethyl)pyrazin-2-yl)amino)tetrahydro-2H-pyran-2-yl)-3,13-dioxo-6,10-dioxa-2,14-diazapentadecan-8-yl)amino)-3-oxopropanoic acid], less than 100 nM; under `[N-]=[N+]=NCCCCCC(=O)NC(COCCC(=O)NCCOCCOCCOCCOC[C@H]1OC[C@H](Nc2cncc(C(F)(F)F)n2)[C@@H](O)[C@H]1O)COCCC(=O)NCCOCCOCCOCCOC[C@H]1OC[C@H](Nc2cncc(C(F)(F)F)n2)[C@@H](O)[C@H]1O` [A2, 3,3′-((2-(6-azidohexanamido)propane-1,3-diyl)bis(oxy))bis(N-(1-((2R,3R,4R,5S)-3,4-dihydroxy-5-((6-(trifluoromethyl)pyrazin-2-yl)amino)tetrahydro-2H-pyran-2-yl)-2,5,8,11-tetraoxatridecan-13-yl)propanamide)], less than 100 nM. In the case of `[N-]=[N+]=NCCOCCOCCOCCOC[C@H]1OC[C@H](Nc2cncc(C(F)(F)F)n2)[C@@H](O)[C@H]1O` [A21, (2R,3R,4R,5S)-2-(13-azido-2,5,8,11-tetraoxatridecyl)-5-((6-(trifluoromethyl)pyrazin-2-yl)amino)tetrahydro-2H-pyran-3,4-diol] it was 100 to 500 nM; in that of `O[C@@H]1[C@H](O)[C@@H](Nc2cncc(C(F)(F)F)n2)CO[C@@H]1CNc1ccccc1` [A95, (2R,3R,4R,5S)-2-((phenylamino)methyl)-5-((6-(trifluoromethyl)pyrazin-2-yl)amino)tetrahydro-2H-pyran-3,4-diol], 1000 to 10000 nM. `COc1cc(C(F)(F)F)nc(N[C@H]2[C@H]3OC[C@](CO)(O3)[C@H](O)[C@@H]2O)n1` [A46, (1S,2R,3R,4R,5S)-1-(hydroxymethyl)-4-((4-methoxy-6-(trifluoromethyl)pyrimidin-2-yl)amino)-6,8-dioxabicyclo[3.2.1]octane-2,3-diol] yielded a Kd of less than 1000 nM. In the case of `OC[C@@]12CO[C@@H](O1)[C@H](Nc1cc(Cl)cnc1Cl)[C@@H](O)[C@H]2O` [A44, (1S,2R,3R,4R,5S)-4-[(2,5-dichloro-3-pyridyl)amino]-1-(hydroxymethyl)-6,8-dioxabicyclo[3.2.1]octane-2,3-diol] it was less than 1000 nM. Under `OC[C@@]12CO[C@@H](O1)[C@H](Nc1nccc(C(F)(F)F)c1F)[C@@H](O)[C@H]2O` [A42, (1S,2R,3R,4R,5S)-4-[[3-fluoro-4-(trifluoromethyl)-2-pyridyl]amino]-1-(hydroxymethyl)-6,8-dioxabicyclo[3.2.1]octane-2,3-diol] stands 10000 to 100000 nM.
